Test results: ChEMBL document CHEMBL5634133, “Indirubin derivatives as bifunctional molecules inducing DNA damage and targeting PARP for the treatment of cancer” (Eur J Med Chem, 2023)
The source made the active and inactive calls. The rule behind the calls is not given here.

How the values were obtained:
[1] = tested on: NCM460; assay: Antiproliferative activity against human NCM460 cells assessed as inhibition of cell viability incubated for 72 hrs by CCK8 assay; assay type: functional, cell-based; conditions: NCM460, 72 h
[2] = tested on: A549; assay: Antiproliferative activity against human A549 cells assessed as inhibition of cell viability incubated for 72 hrs by CCK8 assay; assay type: functional, cell-based; conditions: A549, 72 h
[3] = tested on: MCF7; assay: Antiproliferative activity against human MCF7 cells assessed as inhibition of cell viability incubated for 72 hrs by CCK8 assay; assay type: functional, cell-based; conditions: MCF7, 72 h
[4] = tested on: MV4-11; assay: Antiproliferative activity against human MV4-11 cells assessed as inhibition of cell viability incubated for 72 hrs by CCK8 assay; assay type: functional, cell-based; conditions: MV4-11, 72 h
[5] = tested on: HCT-116; assay: Antiproliferative activity against human HCT-116 cells assessed as inhibition of cell viability incubated for 72 hrs by CCK8 assay; assay type: functional, cell-based; conditions: HCT-116, 72 h
[6] = target: T1, Poly [ADP-ribose] polymerase 1 (Homo sapiens, UniProt P09874); assay: Inhibition of PARP1 (unknown origin) incubated for 10 mins by chemiluminescence assay
T1 sequence (P09874 whole entry): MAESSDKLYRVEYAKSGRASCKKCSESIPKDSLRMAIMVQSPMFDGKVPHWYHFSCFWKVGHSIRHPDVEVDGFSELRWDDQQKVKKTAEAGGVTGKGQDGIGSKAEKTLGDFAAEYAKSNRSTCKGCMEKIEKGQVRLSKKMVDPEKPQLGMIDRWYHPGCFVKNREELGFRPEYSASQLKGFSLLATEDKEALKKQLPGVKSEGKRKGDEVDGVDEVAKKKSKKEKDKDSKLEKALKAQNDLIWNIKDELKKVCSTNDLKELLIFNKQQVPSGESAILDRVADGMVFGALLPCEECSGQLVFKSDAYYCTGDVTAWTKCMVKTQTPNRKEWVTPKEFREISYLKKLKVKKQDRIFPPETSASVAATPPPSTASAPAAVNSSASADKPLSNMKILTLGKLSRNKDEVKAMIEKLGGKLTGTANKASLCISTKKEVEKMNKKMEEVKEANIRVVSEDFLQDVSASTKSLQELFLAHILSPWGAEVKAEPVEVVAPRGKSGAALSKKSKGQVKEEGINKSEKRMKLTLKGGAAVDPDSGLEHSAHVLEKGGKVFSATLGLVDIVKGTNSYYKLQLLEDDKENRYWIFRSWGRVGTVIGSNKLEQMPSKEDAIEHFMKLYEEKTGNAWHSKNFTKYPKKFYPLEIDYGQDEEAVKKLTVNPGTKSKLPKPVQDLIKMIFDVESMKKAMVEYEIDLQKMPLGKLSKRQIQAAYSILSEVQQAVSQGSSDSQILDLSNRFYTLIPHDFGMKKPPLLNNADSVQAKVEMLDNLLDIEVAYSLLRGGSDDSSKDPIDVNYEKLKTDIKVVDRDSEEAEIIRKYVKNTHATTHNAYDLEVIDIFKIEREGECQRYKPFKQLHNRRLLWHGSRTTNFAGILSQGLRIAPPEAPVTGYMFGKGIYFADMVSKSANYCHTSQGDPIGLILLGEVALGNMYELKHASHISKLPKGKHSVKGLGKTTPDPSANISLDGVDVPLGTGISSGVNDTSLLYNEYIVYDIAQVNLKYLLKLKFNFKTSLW

[7] = tested on: HCT-116; assay: Antitumor activity against human HCT-116 cells xenografted in BALB/c nude mouse assessed as tumor growth inhibition at 20 mg/kg, ip administered for 14 days relative to control; assay type: functional; conditions: Mus musculus, HCT-116, 336 h, time 14 day, read-out: TGI
[8] = tested on: HCT-116; assay: Antitumor activity against human HCT-116 cells xenografted in BALB/c nude mouse assessed as tumor growth inhibition at 10 mg/kg, ip administered for 14 days relative to control; assay type: functional; conditions: HCT-116, 336 h, time 14 day, read-out: TGI
[9] = Half life in BALB/c mouse at 20 mg/kg, po and measured after 24 hrs by LC-MS/MS analysis; assay type: ADME, organism-based; conditions: in vivo
[10] = Cmax in BALB/c mouse at 20 mg/kg, po and measured after 24 hrs by LC-MS/MS analysis; assay type: ADME, organism-based; conditions: in vivo
[11] = AUC(0 to t) in BALB/c mouse at 20 mg/kg, po and measured after 24 hrs by LC-MS/MS analysis; assay type: ADME, organism-based; conditions: in vivo
[12] = AUC(0 to infinity) in BALB/c mouse at 20 mg/kg, po and measured after 24 hrs by LC-MS/MS analysis; assay type: ADME, organism-based; conditions: in vivo
[13] = Clearance in BALB/c mouse at 20 mg/kg, po and measured after 24 hrs by LC-MS/MS analysis; assay type: ADME, organism-based; conditions: in vivo
[14] = tested on: HCT-116; assay: Antiproliferative activity against human HCT-116 cells assessed as inhibition of colony formation incubated for 48 hrs medium replaced with every 14 days by crystal violet staining based optical microscope; assay type: functional, cell-based; conditions: time 14.0 day
[15] = tested on: HCT-116; assay: Antiproliferative activity against human HCT-116 cells assessed as decrease in number of EdU-positive cells at 0.25 to 1 uM incubated for 48 hrs in presence of EdU labeling agent by Hoechst staining based confocal microscopy; assay type: functional, cell-based; conditions: dose 0.25-1 µM
[16] = target: T1, Poly [ADP-ribose] polymerase 1; assay: Inhibition of PARP1 in human HCT-116 cells assessed as inhibition of PARP-induced PARylation incubated for 48 hrs by Western blotting analysis; assay type: cell-based; conditions: dose 0.25-1 µM
[17] = tested on: HCT-116; assay: Induction of DNA damage in human HCT-116 cells assessed as increase in gammaH2AX phosphorylation level incubated for 48 hrs by Western blotting analysis; assay type: functional, cell-based; conditions: dose 0.25-1 µM
[18] = tested on: HCT-116; assay: Induction of DNA damage in human HCT-116 cells assessed as increase in gammaH2AX phosphorylation level incubated for 48 hrs by DAPI staining based immunofluorescence analysis; assay type: functional, cell-based; conditions: dose 0.25-1 µM
[19] = tested on: HCT-116; assay: Induction of apoptosis in human HCT-116 cells assessed as viable cells at 0.25 uM incubated for 48 hrs by Annexin V-PE/7-AAD staining based flow cytometry analysis (reference value: 92.8 %); assay type: functional; conditions: read-out: Activity
[20] = tested on: HCT-116; assay: Induction of apoptosis in human HCT-116 cells assessed as early apoptotic cells at 0.25 uM incubated for 48 hrs by Annexin V-PE/7-AAD staining based flow cytometry analysis (reference value: 6.78 %); assay type: functional
[21] = tested on: HCT-116; assay: Induction of apoptosis in human HCT-116 cells assessed as late apoptotic cells at 0.25 uM incubated for 48 hrs by Annexin V-PE/7-AAD staining based flow cytometry analysis (reference value: 0.39 %); assay type: functional
[22] = tested on: HCT-116; assay: Induction of apoptosis in human HCT-116 cells assessed as necrotic cells at 0.25 uM incubated for 48 hrs by Annexin V-PE/7-AAD staining based flow cytometry analysis (reference value: 0 %); assay type: functional
[23] = tested on: HCT-116; assay: Induction of apoptosis in human HCT-116 cells assessed as viable cells at 0.5 uM incubated for 48 hrs by Annexin V-PE/7-AAD staining based flow cytometry analysis (reference value: 92.8 %); assay type: functional; conditions: read-out: Activity
[24] = tested on: HCT-116; assay: Induction of apoptosis in human HCT-116 cells assessed as early apoptotic cells at 0.5 uM incubated for 48 hrs by Annexin V-PE/7-AAD staining based flow cytometry analysis (reference value: 6.78 %); assay type: functional
[25] = tested on: HCT-116; assay: Induction of apoptosis in human HCT-116 cells assessed as late apoptotic cells at 0.5 uM incubated for 48 hrs by Annexin V-PE/7-AAD staining based flow cytometry analysis (reference value: 0.39 %); assay type: functional
[26] = tested on: HCT-116; assay: Induction of apoptosis in human HCT-116 cells assessed as necrotic cells at 0.5 uM incubated for 48 hrs by Annexin V-PE/7-AAD staining based flow cytometry analysis (reference value: 0 %); assay type: functional
[27] = tested on: HCT-116; assay: Induction of apoptosis in human HCT-116 cells assessed as viable cells at 1 uM incubated for 48 hrs by Annexin V-PE/7-AAD staining based flow cytometry analysis (reference value: 92.8 %); assay type: functional; conditions: read-out: Activity
[28] = tested on: HCT-116; assay: Induction of apoptosis in human HCT-116 cells assessed as early apoptotic cells at 1 uM incubated for 48 hrs by Annexin V-PE/7-AAD staining based flow cytometry analysis (reference value: 6.78 %); assay type: functional
[29] = tested on: HCT-116; assay: Induction of apoptosis in human HCT-116 cells assessed as late apoptotic cells at 1 uM incubated for 48 hrs by Annexin V-PE/7-AAD staining based flow cytometry analysis (reference value: 0.39 %); assay type: functional
[30] = tested on: HCT-116; assay: Induction of apoptosis in human HCT-116 cells assessed as necrotic cells at 1 uM incubated for 48 hrs by Annexin V-PE/7-AAD staining based flow cytometry analysis (reference value: 0 %); assay type: functional
[31] = tested on: HCT-116; assay: Induction of apoptosis in human HCT-116 cells assessed as increase in Cleaved-PARP protein expression level by Western blotting analysis; assay type: functional, cell-based; conditions: dose 0.25-1 µM
[32] = tested on: HCT-116; assay: Induction of apoptosis in human HCT-116 cells assessed as increase in Bax protein expression level by Western blotting analysis; assay type: functional, cell-based; conditions: dose 0.25-1 µM
[33] = tested on: HCT-116; assay: Induction of apoptosis in human HCT-116 cells assessed as increase in Cleaved-Caspase-3 protein expression level by Western blotting analysis; assay type: functional, cell-based; conditions: dose 0.25-1 µM
[34] = tested on: HCT-116; assay: Induction of apoptosis in human HCT-116 cells assessed as decrease in Bcl-2 protein expression level by Western blotting analysis; assay type: functional, cell-based; conditions: dose 0.25-1 µM
[35] = tested on: HCT-116; assay: Induction of apoptosis in human HCT-116 cells assessed as decrease in Caspase-3 protein expression level by Western blotting analysis; assay type: functional, cell-based; conditions: dose 0.25-1 µM
[36] = tested on: HCT-116; assay: Induction of apoptosis in human HCT-116 cells assessed as increase in accumulation of cells at S phase at 0.25 to 1 uM incubated for 48 hrs by propidium iodide staining based flow cytometry analysis (reference value: 24.67%); assay type: functional; conditions: dose 0.25-1 µM
[37] = tested on: HCT-116; assay: […] in human HCT-116 cells assessed as decrease in accumulation of cells at G2/M phase at 0.25 to 1 uM incubated for 48 hrs by propidium iodide staining based flow cytometry analysis (Rvb =34.99%); assay type: functional; set-up: scale not given: the % may be the effect or the level left; conditions: dose 0.25-1 µM
[38] = tested on: HCT-116; assay: Antiproliferative activity against human HCT-116 cells transfected with PARP1 siRNA assessed as inhibition of cell viability at 0.5 uM incubated for 72 hrs by CCK8 assay; assay type: functional, cell-based
[39] = tested on: HCT-116; assay: Antitumor activity against human HCT-116 cells xenografted in BALB/c nude mouse assessed as reduction in tumor weight at 10 mg/kg, ip administered for 14 days relative to control; assay type: functional, organism-based; conditions: time 14.0 day
[40] = Toxicity in BALB/c nude mouse xenografted with human HCT-116 cells assessed as change in body weight at 20 mg/kg, ip administered for 14 days; assay type: organism-based; conditions: in vivo, 336 h, time 14 day
[41] = tested on: HCT-116; assay: Antitumor activity against human HCT-116 cells xenografted in BALB/c nude mouse assessed as suppression of tumor growth at 10 mg/kg, ip administered for 14 days relative to control; assay type: functional, organism-based; conditions: time 14.0 day
[42] = Toxicity in BALB/c nude mouse xenografted with human HCT-116 cells assessed as tissue morphology at 20 mg/kg, ip administered for 14 days by hematoxylin and eosin staining based assay; assay type: organism-based; conditions: in vivo, 336 h, time 14 day
[43] = target: T1, Poly [ADP-ribose] polymerase 1; conditions: dose 10.0 nM, time 10.0 min

O=C1Nc2ccccc2/C1=C1/Nc2ccccc2/C1=N\OCCCC(=O)N1CCN(C(=O)c2ccc(Cc3n[nH]c(=O)c4ccccc34)cc2F)CC1
IC50 [1]: > 60000 nM
IC50 [2]: 3260 nM
IC50 [3]: 1600 nM
IC50 [4]: 520 nM
IC50 [5]: 310 nM
IC50 [6]: 1.89 nM
inhibition in vivo at 20 mg/kg [7]: 86.6%
inhibition in vivo at 10 mg/kg [8]: 75.9%
half-life [9]: 5.82 h
Cmax [10]: 6040 ng/mL
AUCt [11]: 5900 ng·h/mL
AUC [12]: 6450 ng·h/mL
CL [13]: 51.65 mL/min/kg
Activity [14]: Dose-Dependent Effect
Activity [15]: Active
inhibition [16]: Dose-Dependent Effect
Activity [17]: Dose-Dependent Effect
Activity [18]: Dose-Dependent Effect
viability at 0.25 µM [19]: 89.3%
Activity [20]: 8.64%
Activity [21]: 1.76%
Activity [22]: 0.12%
viability at 0.5 µM [23]: 83.7%
Activity [24]: 14.6%
Activity [25]: 1.05%
Activity [26]: 0.11%
viability at 1 µM [27]: 69.4%
Activity [28]: 22.7%
Activity [29]: 7.01%
Activity [30]: 0.28%
Activity [31]: Dose-Dependent Effect
Activity [32]: Dose-Dependent Effect
Activity [33]: Dose-Dependent Effect
Activity [34]: Dose-Dependent Effect
Activity [35]: Dose-Dependent Effect
Activity [36]: 41.03%
Activity [37]: 10.5%
Activity [38]: inactive
Activity [39]: Active
Activity [40]: Non-Toxic
Activity [41]: Active
Activity [42]: Non-Toxic
inhibition [43]: 64.8%
